Data set [1] in a line: Assay (IV) determination of solubility. Type of data set: physicochemical. The protocol:
Assay (IV)—Determination of Solubility
The mimylin peptide was dissolved in water at ˜500 nmol/ml and mixed 1:1 with a series of buffers (100 mM glycylglycine pH 3.0, 100 mM glycylglycine pH 4.0, 100 mM glycylglycine pH 5.0, 100 mM bistrispropane pH 6.0, 100 mM bistrispropane pH 6.5, 100 mM bistrispropane pH 7.0, 100 mM bistrispropane pH 7.5, 100 mM bistrispropane pH 8.0).

In the next data set the target is T1, rat calcitonin receptor (Rattus norvegicus, UniProt P32214).
T1 construct: expressed in transfected cells; host or cells: BHK tk'ts 13 (transient, FuGENE 6)
T1 sequence (P32214 25-479 isoform P32214-2 limits assumed): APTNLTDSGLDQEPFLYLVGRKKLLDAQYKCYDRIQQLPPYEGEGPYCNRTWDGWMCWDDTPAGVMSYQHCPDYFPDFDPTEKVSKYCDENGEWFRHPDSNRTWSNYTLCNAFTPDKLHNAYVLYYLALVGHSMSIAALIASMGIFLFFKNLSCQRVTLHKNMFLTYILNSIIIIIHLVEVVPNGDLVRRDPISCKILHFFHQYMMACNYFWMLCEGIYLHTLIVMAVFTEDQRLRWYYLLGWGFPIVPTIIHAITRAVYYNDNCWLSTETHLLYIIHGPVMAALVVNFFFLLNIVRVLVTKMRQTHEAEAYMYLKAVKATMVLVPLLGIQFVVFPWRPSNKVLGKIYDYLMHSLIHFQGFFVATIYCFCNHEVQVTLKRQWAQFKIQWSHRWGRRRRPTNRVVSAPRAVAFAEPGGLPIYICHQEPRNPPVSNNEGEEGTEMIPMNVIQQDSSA
Description: Assay (VIII) binding to the rat calcitonin receptor. Particulars: membranes; read-out: rCT-R binding IC50. Put shortly:
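Affinity given as IC50 from a one-site competition fit of bound radioactivity, counted by scintillation after cold HBSS washes and NaOH/SDS lysis. Membranes came from BHK tk'ts 13 cells transiently expressing the rat receptor; other conditions followed the human calcitonin receptor protocol.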

Converted amounts (≈) assume the structure as drawn. Numbered stars: 1 amine (or outer) side, 2 acyl side, 3 side chain; on linkers, the order of the positions; unused ones are H or OH. Peptide text beside a SMILES is read from it. * marks the point of attachment. C20 diacid = O=C(O)CCCCCCCCCCCCCCCCCCC(=O)*; C16 diacid = O=C(O)CCCCCCCCCCCCCCC(=O)*; γGlu = O=C(O)[C@H](CCC(=O)[*:2])N[*:1]

`CC(C)C[C@H](NC(=O)CNC(=O)[C@H](CO)NC(=O)[C@H](C)NC(=O)CC[C@H](NC(=O)CCCCCCCCCCCCCCCCCCC(=O)O)C(=O)O)C(=O)N[C@@H](CO)C(=O)N[C@H](C(=O)N[C@@H](C)C(=O)N[C@H](C(=O)N[C@@H](CC(C)C)C(=O)NCC(=O)N[C@@H](CCCNC(=N)N)C(=O)N[C@@H](CC(C)C)C(=O)N[C@@H](CO)C(=O)N[C@@H](CCC(N)=O)C(=O)N[C@@H](CCC(=O)O)C(=O)N[C@@H](CC(C)C)C(=O)N[C@@H](Cc1cnc[nH]1)C(=O)N[C@@H](CCC(=O)O)C(=O)N[C@@H](CC(C)C)C(=O)N[C@@H](CCC(N)=O)C(=O)N[C@H](C(=O)N[C@@H](Cc1ccc(O)cc1)C(=O)N1CCC[C@H]1C(=O)N[C@@H](CCCNC(=N)N)C(=O)N[C@H](C(=O)N[C@@H](CCC(=O)O)C(=O)N[C@H](C(=O)NCC(=O)N[C@@H](CO)C(=O)N[C@@H](CCC(N)=O)C(=O)N[C@H](C(=O)N[C@@H](Cc1ccc(O)cc1)C(N)=O)[C@@H](C)O)[C@@H](C)O)[C@@H](C)O)[C@@H](C)O)C(C)C)[C@@H](C)O` [compound 119, [N-terminal(C20 diacid-gGlu), des1, 4G, 9V, 15Q, 21Q, 23Y, 30S, 31Q, 32T, 33Y]mimylin] ({C20 diacid-γGlu}-ASGLSTAVLGRLSQELHELQTYPRTETGSQTY-NH2): the Solubility result in data set [1] (pH 3.0), in data set [1] (pH 6.0), in data set [1] (pH 6.5), in data set [1] (pH 7.0), in data set [1] (pH 7.5) and in data set [1] (pH 8.0) was “≧200 μM” throughout. Besides, the values for the solubility at 18 h in data set [1] (pH 4.0) and in data set [1] (pH 5.0) were 170 µM (≈ 671 µg/mL) and 56 µM (≈ 221 µg/mL), respectively. Further, at rat calcitonin receptor, the 50% inhibitory concentration (IC50) (usually the concentration at which inhibition is half-maximal) amounted to 0.016 nM.

Turning to `CC(C)C[C@H](NC(=O)[C@H](C)NC(=O)[C@H](C)NC(=O)[C@@H](NC(=O)[C@H](CO)NC(=O)[C@H](CC(C)C)NC(=O)[C@H](CCC(=O)O)NC(=O)[C@H](CO)NC(=O)[C@H](C)NC(=O)CCCCCCCCCCCCCCC(=O)O)[C@@H](C)O)C(=O)NCC(=O)N[C@@H](CCCNC(=N)N)C(=O)N[C@@H](CC(C)C)C(=O)N[C@@H](CO)C(=O)N[C@@H](C)C(=O)N[C@@H](CCC(=O)O)C(=O)N[C@@H](CC(C)C)C(=O)N[C@@H](Cc1cnc[nH]1)C(=O)N[C@@H](CCC(=O)O)C(=O)N[C@@H](CC(C)C)C(=O)N[C@@H](C)C(=O)N[C@H](C(=O)N[C@@H](CC(C)C)C(=O)N1CCC[C@H]1C(=O)N[C@@H](CCCNC(=N)N)C(=O)N[C@H](C(=O)N[C@@H](CCC(=O)O)C(=O)N[C@H](C(=O)NCC(=O)N[C@@H](CO)C(=O)NCC(=O)N[C@@H](CO)C(=O)N1CCC[C@H]1C(N)=O)[C@@H](C)O)[C@@H](C)O)[C@@H](C)O` [compound 49, [N-terminal(C16 diacid), des1, 30S, 31G]mimylin] ({C16 diacid}-ASELSTAALGRLSAELHELATLPRTETGSGSP-NH2), the Solubility result in data set [1] (pH 3.0), in data set [1] (pH 4.0), in data set [1] (pH 5.0), in data set [1] (pH 6.0), in data set [1] (pH 6.5) and in data set [1] (pH 7.0) was “≧200 μM” in each case. The Solubility result in data set [1] (pH 7.5) and in data set [1] (pH 8.0) was “≧200 μM” each time. Besides, the IC50 at rat calcitonin receptor was found to be 0.011 nM.

As to `CC(C)C[C@H](NC(=O)[C@H](CCCNC(=N)N)NC(=O)CNC(=O)[C@H](CC(C)C)NC(=O)[C@@H](NC(=O)[C@H](C)NC(=O)[C@@H](NC(=O)[C@H](CO)NC(=O)[C@H](CC(C)C)NC(=O)[C@H](CCC(=O)O)NC(=O)[C@H](CO)NC(=O)[C@H](C)NC(=O)CC[C@H](NC(=O)CCCCCCCCCCCCCCCCCCC(=O)O)C(=O)O)[C@@H](C)O)[C@@H](C)O)C(=O)N[C@@H](CO)C(=O)N[C@@H](C)C(=O)N[C@@H](CCC(=O)O)C(=O)N[C@@H](CC(C)C)C(=O)N[C@@H](Cc1cnc[nH]1)C(=O)N[C@@H](CCC(=O)O)C(=O)N[C@@H](CC(C)C)C(=O)N[C@@H](CO)C(=O)N[C@H](C(=O)N[C@@H](Cc1ccc(O)cc1)C(=O)N1CCC[C@H]1C(=O)N[C@@H](CCCNC(=N)N)C(=O)N[C@H](C(=O)N[C@@H](CCC(=O)O)C(=O)N[C@H](C(=O)NCC(=O)N[C@@H](CO)C(=O)NCC(=O)N[C@@H](CO)C(=O)N[C@@H](Cc1ccc(O)cc1)C(N)=O)[C@@H](C)O)[C@@H](C)O)[C@@H](C)O` [compound 99, [N-terminal(C20 diacid-gGlu), des1, 9T, 21S, 23Y, 30S, 31G, 33Y]mimylin] ({C20 diacid-γGlu}-ASELSTATLGRLSAELHELSTYPRTETGSGSY-NH2), the Solubility entry in data set [1] (pH 3.0), in data set [1] (pH 4.0), in data set [1] (pH 6.0), in data set [1] (pH 6.5), in data set [1] (pH 7.0) and in data set [1] (pH 7.5) was “≧200 μM” in each case. In addition, the Solubility entry in data set [1] (pH 8.0) is “≧200 μM”. Besides, in data set [1] (pH 5.0), the solubility (commonly the concentration that dissolves in the medium under given conditions) at 18 h turned out to be 19 µM (≈ 72.9 µg/mL). In addition, the IC50 at rat calcitonin receptor amounted to 0.069 nM.

On to `CC(C)C[C@H](NC(=O)[C@H](C)NC(=O)[C@H](C)NC(=O)[C@@H](NC(=O)[C@H](CO)NC(=O)[C@H](CC(C)C)NC(=O)[C@H](CCC(=O)O)NC(=O)[C@H](CO)NC(=O)[C@H](C)NC(=O)CC[C@H](NC(=O)CCCCCCCCCCCCCCC(=O)O)C(=O)O)[C@@H](C)O)C(=O)NCC(=O)N[C@@H](CCCNC(=N)N)C(=O)N[C@@H](CC(C)C)C(=O)N[C@@H](CO)C(=O)N[C@@H](C)C(=O)N[C@@H](CCC(=O)O)C(=O)N[C@@H](CC(C)C)C(=O)N[C@@H](Cc1cnc[nH]1)C(=O)N[C@@H](CCC(=O)O)C(=O)N[C@@H](CC(C)C)C(=O)N[C@@H](C)C(=O)N[C@H](C(=O)N[C@@H](CC(C)C)C(=O)N1CCC[C@H]1C(=O)N[C@@H](CCCNC(=N)N)C(=O)N[C@H](C(=O)N[C@@H](CCC(=O)O)C(=O)N[C@H](C(=O)NCC(=O)N[C@@H](CO)C(=O)NCC(=O)N[C@@H](CO)C(=O)N1CCC[C@H]1C(N)=O)[C@@H](C)O)[C@@H](C)O)[C@@H](C)O` [compound 47, [N-terminal(C16 diacid-gGlu), des1, 30S, 31G]mimylin] ({C16 diacid-γGlu}-ASELSTAALGRLSAELHELATLPRTETGSGSP-NH2), for which the Solubility result in data set [1] (pH 3.0), in data set [1] (pH 4.0), in data set [1] (pH 5.0), in data set [1] (pH 6.0), in data set [1] (pH 6.5) and in data set [1] (pH 7.0) was “≧200 μM” in each case. The Solubility result in data set [1] (pH 7.5) and in data set [1] (pH 8.0) was “≧200 μM” each time. Also, the IC50 at rat calcitonin receptor was 0.013 nM.

On to `CC(C)C[C@H](NC(=O)CNC(=O)[C@H](CO)NC(=O)[C@H](C)NC(=O)CC[C@H](NC(=O)CCCCCCCCCCCCCCCCCCC(=O)O)C(=O)O)C(=O)N[C@@H](CO)C(=O)N[C@H](C(=O)N[C@@H](C)C(=O)N[C@@H](C)C(=O)N[C@@H](CC(C)C)C(=O)NCC(=O)N[C@@H](CCCNC(=N)N)C(=O)N[C@@H](CC(C)C)C(=O)N[C@@H](CO)C(=O)N[C@@H](CCC(N)=O)C(=O)N[C@@H](CCC(=O)O)C(=O)N[C@@H](CC(C)C)C(=O)N[C@@H](Cc1cnc[nH]1)C(=O)N[C@@H](CCC(=O)O)C(=O)N[C@@H](CC(C)C)C(=O)N[C@@H](CCC(N)=O)C(=O)N[C@H](C(=O)N[C@@H](Cc1ccc(O)cc1)C(=O)N1CCC[C@H]1C(=O)N[C@@H](CCCNC(=N)N)C(=O)N[C@H](C(=O)N[C@@H](CCC(=O)O)C(=O)N[C@H](C(=O)NCC(=O)N[C@@H](CO)C(=O)N[C@@H](CCC(N)=O)C(=O)N[C@H](C(=O)N[C@@H](Cc1ccc(O)cc1)C(N)=O)[C@@H](C)O)[C@@H](C)O)[C@@H](C)O)[C@@H](C)O)[C@@H](C)O` [compound 109, [N-terminal(C20 diacid-gGlu), des1, 4G, 15Q, 21Q, 23Y, 30S, 31Q, 32T, 33Y]mimylin] ({C20 diacid-γGlu}-ASGLSTAALGRLSQELHELQTYPRTETGSQTY-NH2), for which the Solubility result in data set [1] (pH 3.0), in data set [1] (pH 4.0), in data set [1] (pH 6.0), in data set [1] (pH 6.5), in data set [1] (pH 7.0) and in data set [1] (pH 7.5) was “≧200 μM” in each case. In addition, the Solubility result in data set [1] (pH 8.0) is “≧200 μM”. This molecule also registered a solubility at 18 h in data set [1] (pH 5.0) of 7 µM (≈ 27.4 µg/mL). In addition, on rat calcitonin receptor, the half-inhibitory concentration (IC50) stood at 0.012 nM.

The record behind these values is US9593149B2, “Amylin and calcitonin receptor agonist” (Novo Nordisk A/S, priority 2014, dated 2017).
